From patent US7525011B2, “Transgenic cancer models in fish” (Dana-Farber Cancer Institute, priority 2002, dated 2009)

What was measured:
zebrafish embryos = assay: 96-well plate embryo survival assay; format: in vivo; conditions: 1% DMSO in egg water, 5- to 8-day old embryos
Procedure: Next it was determined if 5- to 8-day old zebrafish embryos are able to survive in 96 well plates, and what […] of water was necessary to attain high levels of survival. Six-day old zebrafish embryos were allocated to wells in a 96 well plate. Three to four embryos were grown in 250, 150, and 100 μl of egg water with and without 1% DMSO and analyzed daily for mortality.

MYC-ER = conditions: in the presence of tamoxifen; by 300 days of development; CD2-MYC-ER mouse models; cited from earlier work

SMILES | effect on embryo survival (zebrafish embryos) | offspring developing tumors (MYC-ER)
C[S+](C)[O-] [DMSO] | no significant effect | 
CC/C(=C(\c1ccccc1)c1ccc(OCCN(C)C)cc1)c1ccccc1 [tamoxifen] |  | 62%
